From patent publication US11649232B2, “Synthetic dimeric cinchona alkaloids against cancer” (Ares Pharmaceuticals, LLC, priority 2021, dated 2023)
Like-named read-outs stand apart in the source and are kept apart here.

How the values were obtained:
Assay type in all cases: cell-based, human
[1] = test system: ALL-1 (Ph+ adult ALL, B-lineage) cell line; assay: Flow cytometric Annexin V-FITC/PI apoptosis assay; conditions: Homo sapiens; ALL-1, side by side comparison; read-out: IC50 (apoptosis)
Source text: (§1) Cell lines and Apoptosis Assays. We used the human leukemia cell lines ALL-1 (Ph+ adult ALL, B-lineage), LOUCY (adult T-lineage ALL; ATCC® CRL-2629™), and RAJI (Burkitt's leukemia/lymphoma; ATCC®, CCL-86) as targets to evaluate the anti-leukemic activity of cinchona alkaloids. In vivo leukemia initiating xenograft clones capable of causing disseminated and fatal leukemia in NOD-SCID mice, derived from primary leukemia cells of 5 patients with relapsed ALL, and the aforementioned 3 leukemia cells lines were treated for 24 hours or 48 hours at 37° C. with cinchona alkaloids at increasing concentrations ranging from 0.5 μM to 50 μM. Controls cells were treated with vehicle (PBS).
(§2) Apoptotic death was monitored using multiparameter flow cytometry, as previously reported (Uckun, F. M. et al., British Journal of Haematology, 2011, 153:741-752; Uckun, F. M. et al., J Clin Invest., 2015, 125:1006-18). Controls included vehicle (PBS) treated cells (CON). Cells were analyzed for apoptosis using the standard quantitative flow cytometric apoptosis assay using the Annexin V-FITC Apoptosis Detection Kit from Sigma. The labeled cells were analyzed on a LSR II flow cytometer. The percent apoptosis was calculated using the formula: 100−100×(Percentage of non-apoptotic cells in test sample/Percentage of non-apoptotic cells in untreated control sample). The percentages for Annexin V FITC^−PI^− viable cells and Annexin V-FITC^+PI^+ advanced apoptotic cells for each sample are indicated in the respective quadrants of the depicted two-color fluorescence dot plots.
as §1, with “We” for “Cell lines and Apoptosis Assays. We”, “ARES-BI-C001453. […]” for “cinchona alkaloids.”, “ARES-BI-C001453” for “cinchona alkaloids”

[2] = test system: LOUCY (adult T-lineage ALL) cell line; assay: Flow cytometric Annexin V-FITC/PI apoptosis assay; conditions: Homo sapiens; LOUCY, side by side comparison; read-out: IC50 (apoptosis)
Source text: as §1, §2
as §1, with “We” for “Cell lines and Apoptosis Assays. We”, “ARES-BI-C001453. […]” for “cinchona alkaloids.”, “ARES-BI-C001453” for “cinchona alkaloids”

[3] = test system: RAJI (Burkitt's leukemia/lymphoma) cell line; assay: Flow cytometric Annexin V-FITC/PI apoptosis assay; conditions: Homo sapiens; RAJI, side by side comparison; read-out: IC50 (apoptosis)
Source text: as §1, §2
as §1, with “We” for “Cell lines and Apoptosis Assays. We”, “ARES-BI-C001453. […]” for “cinchona alkaloids.”, “ARES-BI-C001453” for “cinchona alkaloids”

[4] = test system: BT-20 triple-negative breast cancer cell line; assay: Clonogenic assay (methylcellulose colony assay)
Description: (§3) Clonogenic Assays. The cytotoxicity of cinchona alkaloids was tested against clonogenic human cancer cells was examined using a methylcellulose colony assay system, as described previously (Uckun, F. M. et al., J. Exp. Med., 1986, 163: 347-68; Uckun, F. M. et al., J. Clin. Invest., 1993, 91: 1044-1051). In brief, cells (10^5 cells/ml in RPMI-10% fetal bovine serum) were treated for 8 hours at 37° C. with cinchona alkaloids at varying concentrations. After treatment, cells were washed twice, and resuspended in clonogenic medium consisting of RPMI 1640 supplemented with 0.9% methylcellulose, 10% fetal bovine serum, and 50 μM 2-mercaptoethanol. Cells were plated at 5×10^4 cells/ml in RPMI 1640 supplemented with 10% fetal bovine serum, and 0.9% methylcellulose in duplicate 35-mm Petri dishes, and cultured for 7 days at 37° C. in a humidified 5% CO2 incubator. Subsequently, cancer cell colonies were enumerated on a grid using an inverted phase-contrast microscope of high optical resolution. Results were expressed as the % Inhibition=[1−(Number of colonies in compound-treated test cultures/Number of colonies in vehicle-treated control cultures)]×100.
as §3, with “cytotoxicity of synthetic dimeric cinchona alkaloids” for “cytotoxicity of cinchona alkaloids”

[5] = test system: PC-3 castration-resistant prostate cancer cell line; assay: Clonogenic assay (methylcellulose colony assay); conditions: for inhibition at 3 µM / IC50 / inhibition at 1 µM / inhibition at 10 µM: Homo sapiens
Description: as §3
as §3, with “cytotoxicity of synthetic dimeric cinchona alkaloids” for “cytotoxicity of cinchona alkaloids”

[6] = test system: BT-20 and PC-3 cells; assay: Clonogenic assay, pooled 4 experiments (2 PC-3, 2 BT-20)
Description: as §3
as §3, with “cytotoxicity of synthetic dimeric cinchona alkaloids” for “cytotoxicity of cinchona alkaloids”

Q: How did the IC50 [1] turn out when CCC1(O)CCN2CCC1C[C@@H]2[C@@H](Oc1nnc(O[C@H](c2ccnc3ccc(OC)cc23)[C@@H]2N3CC[C@H]4C(O)(CC)CC243)c2ccccc12)c1ccnc2ccc(OC)cc12 (mixture of isomers) [ARES-BI-C001453] was run?
A: 780 nM

Q: And the IC50 [2]?
A: 42 nM

Q: And the IC50 [3]?
A: 8900 nM

Q: And the “Colonies/5 × 10^4 Cells” value ([4]; BT-20 EXP#1, 1 μM)?
A: 21.5 Colonies/5 × 10^4 Cells

Q: What about the “Colonies/5 × 10^4 Cells” value ([4]; BT-20 EXP#1, 3 μM) of the same compound?
A: 10.0 Colonies/5 × 10^4 Cells

Q: And the “Colonies/5 × 10^4 Cells” value ([4]; BT-20 EXP#1, 10 μM)?
A: 0.0 Colonies/5 × 10^4 Cells

Q: What about the “Colonies/5 × 10^4 Cells” value ([4]; BT-20 EXP#2, 1 μM) of the same compound?
A: 40.0 Colonies/5 × 10^4 Cells

Q: What about the “Colonies/5 × 10^4 Cells” value ([4]; BT-20 EXP#2, 3 μM) of the same compound?
A: 9.5 Colonies/5 × 10^4 Cells

Q: What about the “Colonies/5 × 10^4 Cells” value ([4]; BT-20 EXP#2, 10 μM) of the same compound?
A: 1.0 Colonies/5 × 10^4 Cells

Q: And the inhibition at 1 µM ([4]; Homo sapiens, BT-20, BT-20 EXP#1, 1 μM)?
A: 78%

Q: And the inhibition at 3 µM ([4]; Homo sapiens, BT-20, BT-20 EXP#1, 3 μM)?
A: 89.8%

Q: And the inhibition at 10 µM ([4]; Homo sapiens, BT-20, BT-20 EXP#1, 10 μM)?
A: > 98.9%

Q: What about the inhibition at 1 µM ([4]; Homo sapiens, BT-20, BT-20 EXP#2, 1 μM) of the same compound?
A: 64.9%

Q: And the inhibition at 3 µM ([4]; Homo sapiens, BT-20, BT-20 EXP#2, 3 μM)?
A: 91.7%

Q: And the inhibition at 10 µM ([4]; Homo sapiens, BT-20, BT-20 EXP#2, 10 μM)?
A: 99.1%

Q: And the IC50 ([4]; Homo sapiens, BT-20, two independent experiments, non-linear regression, read-out: IC50, inhibition of clonogenic growth)?
A: 369 nM

Q: And the inhibition at 3 µM ([5]; PC-3, PC3 cells, 3 μM, read-out: inhibition of clonogenic growth)?
A: > 99%

Q: And the IC50 ([5]; PC-3, PC3 cells, read-out: estimated IC50, clonogenic growth)?
A: 129 nM

Q: What about the inhibition at 1 µM ([5]; PC-3 EXP#1, 1 μM) of the same compound?
A: 91.9%

Q: And the inhibition at 3 µM ([5]; PC-3 EXP#1, 3 μM, read-out: % Inhibition)?
A: 99.7%

Q: What about the inhibition at 10 µM ([5]; PC-3 EXP#1, 10 μM) of the same compound?
A: 99.5%

Q: What about the inhibition at 1 µM ([5]; PC-3 EXP#2, 1 μM) of the same compound?
A: 95.6%

Q: What about the inhibition at 3 µM ([5]; PC-3 EXP#2, 3 μM, read-out: % Inhibition) of the same compound?
A: 99.4%

Q: What about the inhibition at 10 µM ([5]; PC-3 EXP#2, 10 μM) of the same compound?
A: 99.4%

Q: And the IC50 ([5]; PC-3, two independent experiments, non-linear regression, read-out: IC50, inhibition of clonogenic growth)?
A: 56 nM

Q: And the “Colonies/5 × 10^4 Cells” value ([5]; PC-3 EXP#1, 1 μM)?
A: 15.0 Colonies/5 × 10^4 Cells

Q: What about the “Colonies/5 × 10^4 Cells” value ([5]; PC-3 EXP#1, 3 μM) of the same compound?
A: 0.5 Colonies/5 × 10^4 Cells

Q: And the “Colonies/5 × 10^4 Cells” value ([5]; PC-3 EXP#1, 10 μM)?
A: 1.0 Colonies/5 × 10^4 Cells

Q: What about the “Colonies/5 × 10^4 Cells” value ([5]; PC-3 EXP#2, 1 μM) of the same compound?
A: 7.0 Colonies/5 × 10^4 Cells

Q: What about the “Colonies/5 × 10^4 Cells” value ([5]; PC-3 EXP#2, 3 μM) of the same compound?
A: 1 Colonies/5 × 10^4 Cells

Q: And the “Colonies/5 × 10^4 Cells” value ([5]; PC-3 EXP#2, 10 μM)?
A: 1 Colonies/5 × 10^4 Cells

Q: What about the “mean number of residual clones forming colonies” value ([6]; 1 μM, BT-20 and PC-3) of the same compound?
A: 20.9±5.3 /5×10^4 cells

Q: And the inhibition at 1 µM ([6]; Homo sapiens, 1 μM, 4 experiments (2 PC-3, 2 BT-20), read-out: inhibition of clonogenic growth (mean±SE))?
A: 82.6 ± 8.1%

Q: And the inhibition at 10 µM ([6]; Homo sapiens, 10 μM, BT-20 and PC-3, read-out: inhibition of clonogenic growth (mean±SE))?
A: 99.2 ± 0.2%
